Molecular target: T1, human PAH with the R408W mutation (Homo sapiens, UniProt P00439, R408W)
T1 construct: expressed in transfected cells
T1 sequence (P00439 1-452 R408W): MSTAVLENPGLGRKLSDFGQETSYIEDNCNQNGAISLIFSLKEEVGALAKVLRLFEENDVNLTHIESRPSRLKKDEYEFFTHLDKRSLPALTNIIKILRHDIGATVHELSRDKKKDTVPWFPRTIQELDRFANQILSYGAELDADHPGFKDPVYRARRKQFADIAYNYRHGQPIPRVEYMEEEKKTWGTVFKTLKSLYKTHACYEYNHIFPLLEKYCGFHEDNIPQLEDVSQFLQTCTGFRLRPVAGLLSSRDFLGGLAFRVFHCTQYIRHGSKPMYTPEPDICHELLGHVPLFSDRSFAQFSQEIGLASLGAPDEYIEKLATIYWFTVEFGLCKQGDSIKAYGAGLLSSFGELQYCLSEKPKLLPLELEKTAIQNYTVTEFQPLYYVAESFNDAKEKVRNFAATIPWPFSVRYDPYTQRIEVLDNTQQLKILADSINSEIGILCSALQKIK
Assay: Cell Based Phenylalanine Flux Assay
Settings: A375 cells expressing human R408W PAH; 24 hrs compound incubation; 13C-Tyrosine by LC-MS; average where tested multiple times; read-out: AC50

**Q.** With `O=C(c1cnn2cc(-c3cncnc3)ccc12)N1CCc2[nH]cnc2[C@H]1c1cc2ccccc2cn1` [Example 487, (R)-(4-(isoquinolin-3-yl)-6,7-dihydro-1H-imidazo[4,5-c]pyridin-5(4H)-yl)(6-(pyrimidin-5-yl)pyrazolo[1,5-a]pyridin-3-yl)methanone] as the compound, how does the AC50 read?
**A.** < 500 nM

**Q.** `CN1CCN(Cc2ccc3c(C(=O)N4CCc5[nH]cnc5[C@H]4c4cc5ccccc5cn4)cnn3c2)CC1` [Example 488, (R)-(4-(isoquinolin-3-yl)-6,7-dihydro-1H-imidazo[4,5-c]pyridin-5(4H)-yl)(6-((4-methylpiperazin-1-yl)methyl)pyrazolo[1,5-a]pyridin-3-yl)methanone] was tested. Which AC50 did it give?
**A.** < 500 nM

**Q.** For `O=C(c1cnn2cc(N3CCCC3)ccc12)N1CCc2[nH]cnc2[C@H]1c1cc2ccccc2cn1` [Example 489, (R)-(4-(isoquinolin-3-yl)-6,7-dihydro-1H-imidazo[4,5-c]pyridin-5(4H)-yl)(6-(pyrrolidin-1-yl)pyrazolo[1,5-a]pyridin-3-yl)methanone], which AC50 is on record?
**A.** < 500 nM

**Q.** With `Cc1nnc(C(=O)N2CC3(CC3)c3[nH]cnc3[C@H]2c2cc3ccccc3cn2)o1` [Example 490, (R)-(4′-(isoquinolin-3-yl)spiro[cyclopropane-1,7′-imidazo[4,5-c]pyridin]-5′(1′H,4′H,6′H)-yl)(5-methyl-1,3,4-oxadiazol-2-yl)methanone] as the compound, how does the AC50 read?
**A.** < 500 nM

**Q.** Which AC50 does the source give for `Cc1ncoc1C(=O)N1CC2(CC2)c2[nH]cnc2[C@@H]1c1cc2ccccc2cn1` [Example 492, (S)-(4′-(isoquinolin-3-yl)spiro[cyclopropane-1,7′-imidazo[4,5-c]pyridin]-5′(1′H,4′H,6′H)-yl)(4-methyloxazol-5-yl)methanone] here?
**A.** > 5000 nM

**Q.** How did the AC50 turn out when `Cc1ncoc1C(=O)N1CC2(CC2)c2[nH]cnc2[C@H]1c1cc2ccccc2cn1` [Example 493, (R)-(4′-(isoquinolin-3-yl)spiro[cyclopropane-1,7′-imidazo[4,5-c]pyridin]-5′(1′H,4′H,6′H)-yl)(4-methyloxazol-5-yl)methanone] was run?
**A.** < 500 nM

**Q.** With `C[C@@H]1CN(C(=O)c2nnc(-c3ccc(F)cn3)o2)[C@H](c2cc3ccccc3cn2)c2nc[nH]c21` [Example 494, (5-(5-fluoropyridin-2-yl)-1,3,4-oxadiazol-2-yl)((4R,7R)-4-(isoquinolin-3-yl)-7-methyl-6,7-dihydro-1H-imidazo[4,5-c]pyridin-5(4H)-yl)methanone] as the compound, how does the AC50 read?
**A.** 1000 to 5000 nM

**Q.** For `C[C@H]1CN(C(=O)c2nnc(-c3ccc(F)cn3)o2)[C@H](c2cc3ccccc3cn2)c2nc[nH]c21` [Example 496, (5-(5-fluoropyridin-2-yl)-1,3,4-oxadiazol-2-yl)((4R,7S)-4-(isoquinolin-3-yl)-7-methyl-6,7-dihydro-1H-imidazo[4,5-c]pyridin-5(4H)-yl)methanone], which AC50 is on record?
**A.** 1000 to 5000 nM

**Q.** How did the AC50 turn out when `C[C@H]1CN(C(=O)c2nnc(-c3ccc(F)cn3)o2)[C@@H](c2cc3ccccc3cn2)c2nc[nH]c21` [Example 497, (5-(5-fluoropyridin-2-yl)-1,3,4-oxadiazol-2-yl)((4S,7S)-4-(isoquinolin-3-yl)-7-methyl-6,7-dihydro-1H-imidazo[4,5-c]pyridin-5(4H)-yl)methanone] was run?
**A.** 1000 to 5000 nM

**Q.** For `C[C@H]1CN(C(=O)c2nnc(C(C)(C)F)o2)[C@@H](c2cc3ccccc3cn2)c2nc[nH]c21` [Example 498, (5-(2-fluoropropan-2-yl)-1,3,4-oxadiazol-2-yl)((4S,7S)-4-(isoquinolin-3-yl)-7-methyl-6,7-dihydro-1H-imidazo[4,5-c]pyridin-5(4H)-yl)methanone], which AC50 is on record?
**A.** 1000 to 5000 nM

**Q.** Which AC50 does the source give for `C[C@H]1CN(C(=O)c2nnc(C(C)(C)F)o2)[C@H](c2cc3ccccc3cn2)c2nc[nH]c21` [Example 499, (5-(2-fluoropropan-2-yl)-1,3,4-oxadiazol-2-yl)((4R,7S)-4-(isoquinolin-3-yl)-7-methyl-6,7-dihydro-1H-imidazo[4,5-c]pyridin-5(4H)-yl)methanone] here?
**A.** 500 to 1000 nM

**Q.** How did the AC50 turn out when `C[C@@H]1CN(C(=O)c2nnc(C(C)(C)F)o2)[C@H](c2cc3ccccc3cn2)c2nc[nH]c21` [Example 501, (5-(2-fluoropropan-2-yl)-1,3,4-oxadiazol-2-yl)((4R,7R)-4-(isoquinolin-3-yl)-7-methyl-6,7-dihydro-1H-imidazo[4,5-c]pyridin-5(4H)-yl)methanone] was run?
**A.** < 500 nM

**Q.** For `C[C@H]1CN(C(=O)c2cnco2)[C@H](c2cc3ccccc3cn2)c2nc[nH]c21` [Example 503, ((4R,7S)-4-(isoquinolin-3-yl)-7-methyl-6,7-dihydro-1H-imidazo[4,5-c]pyridin-5(4H)-yl)(oxazol-5-yl)methanone], which AC50 is on record?
**A.** 500 to 1000 nM

**Q.** `C[C@@H]1CN(C(=O)c2cnco2)[C@H](c2cc3ccccc3cn2)c2nc[nH]c21` [Example 505, ((4R,7R)-4-(isoquinolin-3-yl)-7-methyl-6,7-dihydro-1H-imidazo[4,5-c]pyridin-5(4H)-yl)(oxazol-5-yl)methanone] was tested. Which AC50 did it give?
**A.** < 500 nM

**Q.** For `C[C@H]1CN(C(=O)c2ocnc2C2CC2)[C@H](c2cc3ccccc3cn2)c2nc[nH]c21` [Example 506, (4-cyclopropyloxazol-5-yl)((4R,7S)-4-(isoquinolin-3-yl)-7-methyl-6,7-dihydro-1H-imidazo[4,5-c]pyridin-5(4H)-yl)methanone], which AC50 is on record?
**A.** < 500 nM

**Q.** Which AC50 does the source give for `C[C@H]1CN(C(=O)c2ocnc2C2CC2)[C@@H](c2cc3ccccc3cn2)c2nc[nH]c21` [Example 507, (4-cyclopropyloxazol-5-yl)((4S,7S)-4-(isoquinolin-3-yl)-7-methyl-6,7-dihydro-1H-imidazo[4,5-c]pyridin-5(4H)-yl)methanone] here?
**A.** 1000 to 5000 nM

**Q.** With `C[C@H]1CN(C(=O)c2nnc(C3CC3)o2)[C@H](c2cc3ccccc3cn2)c2nc[nH]c21` [Example 511, (5-cyclopropyl-1,3,4-oxadiazol-2-yl)((4R,7S)-4-(isoquinolin-3-yl)-7-methyl-6,7-dihydro-1H-imidazo[4,5-c]pyridin-5(4H)-yl)methanone] as the compound, how does the AC50 read?
**A.** 500 to 1000 nM

**Q.** Which AC50 does the source give for `C[C@@H]1CN(C(=O)c2nnc(C3CC3)o2)[C@H](c2cc3ccccc3cn2)c2nc[nH]c21` [Example 513, (5-cyclopropyl-1,3,4-oxadiazol-2-yl)((4R,7R)-4-(isoquinolin-3-yl)-7-methyl-6,7-dihydro-1H-imidazo[4,5-c]pyridin-5(4H)-yl)methanone] here?
**A.** 500 to 1000 nM

**Q.** Which AC50 does the source give for `COc1ccc(-c2nnc(C(=O)N3C[C@H](C)c4[nH]cnc4[C@@H]3c3cc4ccccc4cn3)o2)nc1` [Example 515, ((4S,7S)-4-(isoquinolin-3-yl)-7-methyl-6,7-dihydro-1H-imidazo[4,5-c]pyridin-5(4H)-yl)(5-(5-methoxypyridin-2-yl)-1,3,4-oxadiazol-2-yl)methanone] here?
**A.** 1000 to 5000 nM

**Q.** For `COc1ccc(-c2nnc(C(=O)N3C[C@H](C)c4[nH]cnc4[C@H]3c3cc4ccccc4cn3)o2)nc1` [Example 516, ((4R,7S)-4-(isoquinolin-3-yl)-7-methyl-6,7-dihydro-1H-imidazo[4,5-c]pyridin-5(4H)-yl)(5-(5-methoxypyridin-2-yl)-1,3,4-oxadiazol-2-yl)methanone], which AC50 is on record?
**A.** 500 to 1000 nM

**Q.** With `N#Cc1ncoc1C(=O)N1CCc2[nH]cnc2[C@H]1c1cc2ccccc2cn1` [Example 517, (R)-5-(4-(isoquinolin-3-yl)-4,5,6,7-tetrahydro-1H-imidazo[4,5-c]pyridine-5-carbonyl)oxazole-4-carbonitrile] as the compound, how does the AC50 read?
**A.** < 500 nM

**Q.** Which AC50 does the source give for `Cn1ncnc1C(=O)N1CCc2[nH]cnc2[C@H]1c1cc2ccccc2cn1` [Example 518, [(4R)-4-(3-isoquinolyl)-1,4,6,7-tetrahydroimidazo[4,5-c]pyridin-5-yl]-(2-methyl-1,2,4-triazol-3-yl)methanone] here?
**A.** < 500 nM

**Q.** How did the AC50 turn out when “(R)-(5-(1-methyl-1H-imidazol-4-yl)-1,3-oxadiazol-2- yl)(4-(quinazolin-2-yl)-6,7-dihydro-1H-imidazo[4,5- c]pyridin-5(4H)-yl)methanone [Example 198]” was run?
**A.** > 5000 nM

Source: patent publication US20250262201A1, “COMPOUNDS AND METHODS USEFUL FOR STABILIZING PHENYLALANINE HYDROXYLASE MUTATIONS” (Agios Pharmaceuticals, Inc., priority 2022, published 2025)
